In the NIST ThermoML archive (doi:10.1016/j.tca.2004.12.012):
± gives the expanded uncertainty stated by the source.

Conditions: Crystal 2; DTA

[Br-].[Na+] [sodium bromide]
Triple point temperature: 1114 ± 3 K
